Like-named read-outs stand apart in the source and are kept apart here.
Assays:
[1] = biological target: T1, CYP1A2 (Rattus norvegicus, UniProt P04799); experiment: Cocktail CYP inhibition in rat liver microsomes, CYP1A2 (phenacetin); format: in vitro ADME; settings: cocktail method, read-out: IC50 values, CYP1A2 in RLMs
T1 construct: containing 100 μL RLMs or HLMs; tissue Research Institute for Liver Diseases (Shanghai) Co., Ltd; host or cells: male SD rat liver microsomes
Experimental: (§1) We used the cocktail method to study the inhibition activities of DPTM against CYP enzymes in RLMs and HLMs with slight modification. DPTM (250 μmol) was dissolved in 1.25 mL methanol to a solution and then diluted with methanol and water to 2, 10, 20, 100, 200, 400, 1,000 and 2000 μM, respectively. The obtained serial dilutions (10 μL) were added to the incubation mixtures (200 μL total volume), containing 100 μL RLMs or HLMs (final concentration was 5 μg/μL, respectively), 10 μL glucose-6-phosphate (final concentration was 1 mM), 10 μL glucose-6-phosphate dehydrogenase (final concentration was 0.1 U/L), 20 μL potassium phosphate buffer (final concentration was 0.01 M) and 20 μL MgCl2 (final concentration was 2 mM), to give the final concentrations were 0.1, 0.5, 1, 5 10, 20, 50, and 100 μM, respectively. For the groups that in the absence of DPTM, 10 μL methanol (1%) replaced the DPTM and was added to the incubation mixtures. […] The final concentration of methanol in all the incubation mixtures, including the blank group, was […]. […] The determined metabolic substrates were used for calculating the relative enzyme activity (Erel) by the following formula: Erel (%) = Ci(n)/Ci(0) × 100%, in which Ci(n) was the determined metabolic substrates in the presence of varying concentrations of DPTM and Ci(0) was the determined metabolic substrates in the absence of DPTM. […]

[2] = biological target: T2, CYP1A2 (Homo sapiens, UniProt P05177); experiment: Cocktail CYP inhibition in human liver microsomes, CYP1A2 (phenacetin); format: in vitro ADME; settings: cocktail method, read-out: IC50 values, CYP1A2 in HLMs
T2 construct: containing 100 μL RLMs or HLMs; tissue Research Institute for Liver Diseases (Shanghai) Co., Ltd; host or cells: pooled human liver microsomes
T2 sequence (P05177 whole entry): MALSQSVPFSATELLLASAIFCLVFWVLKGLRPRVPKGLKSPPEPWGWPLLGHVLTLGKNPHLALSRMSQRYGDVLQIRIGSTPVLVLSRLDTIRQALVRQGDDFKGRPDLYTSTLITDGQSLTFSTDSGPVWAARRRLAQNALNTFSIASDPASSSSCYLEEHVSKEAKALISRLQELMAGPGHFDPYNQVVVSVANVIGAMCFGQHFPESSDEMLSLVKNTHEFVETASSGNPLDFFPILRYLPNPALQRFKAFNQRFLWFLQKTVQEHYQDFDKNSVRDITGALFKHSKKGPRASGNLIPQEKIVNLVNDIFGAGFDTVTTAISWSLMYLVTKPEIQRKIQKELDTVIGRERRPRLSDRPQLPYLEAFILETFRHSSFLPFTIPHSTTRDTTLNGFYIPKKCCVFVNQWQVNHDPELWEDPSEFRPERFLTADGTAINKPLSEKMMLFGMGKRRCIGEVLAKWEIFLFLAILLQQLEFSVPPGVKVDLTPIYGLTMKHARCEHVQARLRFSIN
Experimental: as §1

[3] = system: CYP1A2 mRNA; experiment: CYP1A2 mRNA expression in Hep G2 cells (real-time PCR); format: cell-based, human
Experimental: (§2) The logarithmic growth phase Hep G2 cells were seeded into 12-well plastic plates at a density of […]. After incubation at 37 °C under 5% CO2 for 24 h, the media were then replaced with 1 mL of serial dilutions of the DPTM (4.98, 0.16 and 0.08 mM) in fresh media. When cells were incubated for 2, 4 and 12 h at 37 °C under 5% CO2, the RNA was isolated using the Trizol reagent according to the manufacturer’s protocol. Total RNA (5 μL) was transcribed into cDNA by using the PrimeScript RT reagent Kit (Perfect Real Time). The obtained cDNA (5 μL) was added for 45 cycles of PCR amplification to detect the mRNA expression (the primers and sequences used herein were given in Table 3) using the ABI Villa TM7Dx real-time PCR system (Gaithersburg, USA). Glyceraldehyde-3-phosphate dehydrogenase (GAPDH) was used as reference gene. All reactions were performed in a final volume of 20 μL (10 μL of 2 × SYBR Green Real-time PCR Master Mix, 2 μL of cDNA and 2 μL of the primers and 6 μL DEPC water) and executed in triplicate.

[4] = system: CYP3A4 mRNA; experiment: CYP3A4 mRNA expression in Hep G2 cells (real-time PCR); format: cell-based, human; settings: 2 and 4 h, 4.98, 0.16 and 0.08 mM
Experimental: as §2

[5] = system: CYP2E1 mRNA; experiment: CYP2E1 mRNA expression in Hep G2 cells (real-time PCR); format: cell-based, human
Experimental: as §2

[6] = system: AhR mRNA; experiment: AhR mRNA expression in Hep G2 cells (real-time PCR); format: cell-based, human
Experimental: as §2

[7] = system: PXR mRNA; experiment: PXR mRNA expression in Hep G2 cells (real-time PCR); format: cell-based, human; settings: 4 and 12 h, three doses
Experimental: as §2

[8] = system: PPARα mRNA; experiment: PPARα mRNA expression in Hep G2 cells (real-time PCR); format: cell-based, human; settings: 2, 4 and 12 h, three doses
Experimental: as §2

[9] = system: S. typhimurium TA100; settings: − S9
From the text: (§3) S. typhimurium strains TA97, TA98, TA100, TA102 and TA1535 were stored and maintained as provided in the standard protocol. Each of the strains was checked for their genetic integrity prior to the experiment, and tested for biotin dependence, histidine dependence, biotin and histidine dependence, rfa marker (crystal violet) and presence of the plasmid pKM101 (ampicillin resistance) or pAQ1 (tetracycline resistance). Different strains were used to identify different types of mutations.
(§4) The test was carried out at five different concentrations of DPTM. […] Then 1 mL solution was diluted with distilled water by two fold. […] The negative control used in this experiment was 1 mL DMSO which was directly incorporated into 9 mL melted top agar.
(§5) The Ames test of DPTM was conducted as described in the literatures[42],[43] with some modifications. Briefly, 1 mL of strain was inoculated into 5 mL of nutrient broth, followed by incubating overnight at 37 °C. The mixture comprised respective strains, drug, negative and positive controls with the S9 for testing in the presence of metabolic activation system. For testing without S9, 1 × phosphate buffer saline (PBS, pH 7.4) replaced the S9 mix. The obtained mixtures were added into the tube, mixed well and incubated at 37 °C for 20 min. Then, the top agar was melted and 2 mL of this melted top agar was added to each tube and gently mixed. […] The results were expressed as the number of revertant colonies per plate. The experiments were performed in triplicate.

[10] = system: S. typhimurium TA1535; settings: − S9
From the text: as §3, §4, §5

[11] = set-up: method as in PMID 30813235; settings: rats, intravenous administration; cited from earlier work
[12] = 2 and 4 h, 4.98, 0.16 and 0.08 mM

T1 sequence (P04799 whole entry): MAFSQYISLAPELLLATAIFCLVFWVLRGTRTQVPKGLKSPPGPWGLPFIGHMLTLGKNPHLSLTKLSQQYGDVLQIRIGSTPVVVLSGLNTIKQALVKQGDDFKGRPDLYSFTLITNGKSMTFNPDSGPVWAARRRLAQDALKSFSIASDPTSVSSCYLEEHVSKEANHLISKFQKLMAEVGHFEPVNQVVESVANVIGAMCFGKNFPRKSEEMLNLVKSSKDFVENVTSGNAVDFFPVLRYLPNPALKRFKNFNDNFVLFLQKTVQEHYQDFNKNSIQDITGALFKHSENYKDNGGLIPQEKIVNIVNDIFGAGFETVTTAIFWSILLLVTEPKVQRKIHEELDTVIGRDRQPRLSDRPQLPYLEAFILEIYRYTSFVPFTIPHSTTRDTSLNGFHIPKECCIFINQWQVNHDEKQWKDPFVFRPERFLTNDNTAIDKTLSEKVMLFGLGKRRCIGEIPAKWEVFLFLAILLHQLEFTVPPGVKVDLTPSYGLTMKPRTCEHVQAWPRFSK

C=CC1(C)CC(OC(=O)CSc2nc(N)cc(N)n2)C2(C)C(C)CCC3(CCC(=O)C32)C(C)C1O (stereo not shown) [DPTM, 14-O-[(4,6-Diaminopyrimidine-2-yl)thioacetyl] mutilin]
IC50 [1]: > 100 µM
IC50 [2]: > 100 µM
CYP1A2 mRNA expression versus control [3, 12]: significantly increase
CYP1A2 mRNA expression versus control ([3]; 12 h): significantly lowered
CYP3A4 mRNA expression versus control [4]: significantly increase
CYP2E1 mRNA level versus control ([5]; 4 h, three doses): no significantly difference
CYP2E1 mRNA expression versus control ([5]; 12 h): significantly lowered
AhR mRNA content versus control [6, 12]: significantly increased
AhR mRNA content versus control ([6]; 12 h): no effect
PXR mRNA expression versus control [7]: significantly increased
PPARα mRNA expression versus control [8]: significantly increase
revertant colonies per plate, TA100 ([9]; dose 0.25 μmol/plate): 171 ± 15 CFU
revertant colonies per plate, TA100 ([9]; dose 0.50 μmol/plate): 162 ± 13 CFU
revertant colonies per plate, TA100 ([9]; dose 1.00 μmol/plate): 165 ± 14 CFU
revertant colonies per plate, TA100 ([9]; dose 1.99 μmol/plate): 170 ± 12 CFU
revertant colonies per plate, TA100 ([9]; dose 3.98 μmol/plate): 173 ± 15 CFU
revertant colonies per plate, TA1535 ([10]; dose 0.25 μmol/plate): 22 ± 3 CFU
revertant colonies per plate, TA1535 ([10]; dose 0.50 μmol/plate): 21 ± 5 CFU
revertant colonies per plate, TA1535 ([10]; dose 1.00 μmol/plate): 26 ± 1 CFU
revertant colonies per plate, TA1535 ([10]; dose 1.99 μmol/plate): 22 ± 3 CFU
revertant colonies per plate, TA1535 ([10]; dose 3.98 μmol/plate): 22 ± 4 CFU
half-life (t1/2) [11]: 1.7 to 1.9 h

Source: paper PMC7417534, “Cytochrome P450 inhibition potential and initial genotoxic evaluation of 14-O-[(4,6-diaminopyrimidine-2-yl)thioacetyl] mutilin” (Scientific Reports, 2020)
